According to patent US11564920B2, “5-heteroaryl-1H-pyrazol-3-amine derivative” (Sumitomo Pharma Co., Ltd., priority 2020, dated 2023):

What was measured:
CHK1 = CHK1 (Homo sapiens (Human), UniProt O14757); experiment: CHK1 inhibitory activity test (IMAP TR-FRET); type: biochemical; conditions: for effect of suppressing CHK1 activity (in words): compared with prexasertib; for inhibition at 0.0001 µM: read-out: CHK1 inhibition % at 0.1 nM
Description: IMAP TR-FRET Screening Express Kit (R8160) was obtained from Molecular Devices. […] FAM-PKAtide (R7255, Molecular Devices) and FAM-Phospho-PKAtide (R7304, Molecular Devices) were admixed after dilution, and calibration standard systems for phosphorylation levels from 0 to 100% were created. 5 μL of a compound dissolved in a 0.4% DMSO solution was added to a 384 well plate. A compound study group to which 5 μL of each of CHK1, CHK1tide, and ATP was added, and a standard group to which 20 μL of standard was added were created, and subjected to a kinase reaction for 3 hours at 30° C. Subsequently, 60 μL of Binding Reagent (80% Buffer A, 20% Buffer B, 1:600 Binding Reagent, 1:400 Tb-Donor) was added for a binding reaction for 2 hours at room temperature.

ES-2 cells = experiment: Cell growth suppression experiment; type: cell-based; conditions: for IC50: Homo sapiens, 48 h, cultured for 2 days, read-out: IC50 (cell growth suppression, ranking); for cell growth suppression effect (in words): compared with prexasertib
Description: ES-2 cells were obtained from the American Type Culture Collection (ATCC). These cells were cultured at 37° C. in the presence of 5% CO2 in a 10% fetal bovine serum, […] penicillin/streptomycin containing McCoy's 5a medium.
500 cells were seeded for each well in a 384-well plate, and the evaluated compound was added so that the final concentration of DMSO would be 0.1% to culture the cells for 2 days. After completion of the culture, the cell viability rate was calculated using CellTiter-Glo® 3D Reagent (Promega, G968B).

CHK1, sequence (O14757 whole entry): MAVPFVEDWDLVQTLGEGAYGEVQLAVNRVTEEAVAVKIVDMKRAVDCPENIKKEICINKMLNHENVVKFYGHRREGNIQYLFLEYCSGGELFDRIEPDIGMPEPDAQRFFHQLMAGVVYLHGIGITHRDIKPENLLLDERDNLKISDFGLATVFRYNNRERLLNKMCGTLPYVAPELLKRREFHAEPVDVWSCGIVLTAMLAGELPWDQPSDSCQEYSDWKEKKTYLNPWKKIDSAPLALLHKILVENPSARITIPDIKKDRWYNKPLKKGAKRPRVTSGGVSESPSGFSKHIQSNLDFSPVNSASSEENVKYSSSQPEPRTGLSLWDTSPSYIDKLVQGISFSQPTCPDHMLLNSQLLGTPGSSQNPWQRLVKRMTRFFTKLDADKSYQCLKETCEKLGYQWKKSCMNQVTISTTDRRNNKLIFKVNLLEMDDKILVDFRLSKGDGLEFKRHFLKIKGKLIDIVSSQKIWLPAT

Structure (SMILES) | effect of suppressing CHK1 activity (in words) (CHK1) | inhibition at 0.0001 µM (CHK1) [%] | IC50 (ES-2 cells) [nM] | cell growth suppression effect (in words) (ES-2 cells) | IC50 (CHK1) [nM]
COc1cc(Cl)nc(OCCCN)c1-c1cc(Nc2cnc(C#N)cn2)n[nH]1 [Example 2, 5-({5-[2-(3-aminopropoxy)-6-chloro-4-methoxypyridin-3-yl]-1H-pyrazol-3-yl}amino)pyrazine-2-carbonitrile] | more potent effect of suppressing CHK1 activity than prexasertib | 31 | 30 to 100 |  | 
COc1cncc(OCCCN)c1-c1cc(Nc2cnc(C#N)cn2)n[nH]1 [Example 3, 5-({5-[3-(3-aminopropoxy)-5-methoxypyridin-4-yl]-1H-pyrazol-3-yl}amino)pyrazine-2-carbonitrile] | more potent effect of suppressing CHK1 activity than prexasertib | 28 | < 30 | excellent cell growth suppression effect that is equivalent to that of prexasertib | 
COc1nccc(OCCCN)c1-c1cc(Nc2cnc(C#N)cn2)n[nH]1 [Example 4, 5-({5-[4-(3-aminopropoxy)-2-methoxypyridin-3-yl]-1H-pyrazol-3-yl}amino)pyrazine-2-carbonitrile] | more potent effect of suppressing CHK1 activity than prexasertib | 25 | < 30 | excellent cell growth suppression effect that is equivalent to that of prexasertib | 
COc1cncc(OCC2(F)CNC2)c1-c1cc(Nc2cnc(C#N)cn2)n[nH]1 [Example 5, 5-[(5-{3-[(3-fluoroazetidin-3-yl)methoxy]-5-methoxypyridin-4-yl}-1H-pyrazol-3-yl)amino]pyrazine-2-carbonitrile] |  | 15 | < 30 |  | 
COc1nccc(OCC2(C)CNC2)c1-c1cc(Nc2cnc(C#N)cn2)n[nH]1 [Example 6, 5-[(5-{2-methoxy-4-[(3-methylazetidin-3-yl)methoxy]pyridin-3-yl}-1H-pyrazol-3-yl)amino]pyrazine-2-carbonitrile] | more potent effect of suppressing CHK1 activity than prexasertib | 15 | < 30 | excellent cell growth suppression effect that is equivalent to that of prexasertib | 
COc1nccc(OCC2(O)CNC2)c1-c1cc(Nc2cnc(C#N)cn2)n[nH]1 [Example 7, 5-[(5-{4-[(3-hydroxyazetidin-3-yl)methoxy]-2-methoxypyridin-3-yl}-1H-pyrazol-3-yl)amino]pyrazine-2-carbonitrile] | more potent effect of suppressing CHK1 activity than prexasertib | 29 | 30 to 100 |  | 
COc1cncc(OCC[C@@H](C)N)c1-c1cc(Nc2cnc(C#N)cn2)n[nH]1 [Example 9, 5-[(5-{3-[(3R)-3-aminobutoxy]-5-methoxypyridin-4-yl}-1H-pyrazol-3-yl)amino]pyrazine-2-carbonitrile] | more potent effect of suppressing CHK1 activity than prexasertib | 24 | 30 to 100 |  | 
COc1cncc(OCC[C@H](C)N)c1-c1cc(Nc2cnc(C#N)cn2)n[nH]1 [Example 10, 5-[(5-{3-[(3S)-3-aminobutoxy]-5-methoxypyridin-4-yl}-1H-pyrazol-3-yl)amino]pyrazine-2-carbonitrile] | more potent effect of suppressing CHK1 activity than prexasertib | 20 | 30 to 100 |  | 
COc1cncc(OCC2(CN)CC2)c1-c1cc(Nc2cnc(C#N)cn2)n[nH]1 [Example 11, 5-{[5-(3-{[1-(aminomethyl)cyclopropyl]methoxy}-5-methoxypyridin-4-yl)-1H-pyrazol-3-yl]amino}pyrazine-2-carbonitrile] | more potent effect of suppressing CHK1 activity than prexasertib | 35 | < 30 | excellent cell growth suppression effect that is equivalent to that of prexasertib | 
COc1cncc(OC[C@@H](O)CN)c1-c1cc(Nc2cnc(C#N)cn2)n[nH]1 [Example 14, 5-[(5-{3-[(2S)-3-amino-2-hydroxypropoxy]-5-methoxypyridin-4-yl}-1H-pyrazol-3-yl)amino]pyrazine-2-carbonitrile] | more potent effect of suppressing CHK1 activity than prexasertib | 30 | 300 to 1000 |  | 
COc1ccnc(OCCCN)c1-c1cc(Nc2cnc(Cl)cn2)n[nH]1 [Example 15, N-{5-[2-(3-aminopropoxy)-4-methoxypyridin-3-yl]-1H-pyrazol-3-yl}-5-chloropyrazin-2-amine] | more potent effect of suppressing CHK1 activity than prexasertib | 29 | < 30 | excellent cell growth suppression effect that is equivalent to that of prexasertib | 
COc1ncnc(OCCCN)c1-c1cc(Nc2cnc(C#N)cn2)n[nH]1 [Example 17, 5-({5-[4-(3-aminopropoxy)-6-methoxypyrimidin-5-yl]-1H-pyrazol-3-yl}amino)pyrazine-2-carbonitrile] | more potent effect of suppressing CHK1 activity than prexasertib | 24 | < 30 | excellent cell growth suppression effect that is equivalent to that of prexasertib | 0.3
COc1cncc(OCC2CNC2)c1-c1cc(Nc2cnc(C#N)cn2)n[nH]1 [Example 18, 5-({5-[3-(azetidin-3-yl)methoxy-5-methoxypyridin-4-yl]-1H-pyrazol-3-yl}amino)pyrazine-2-carbonitrile] | more potent effect of suppressing CHK1 activity than prexasertib | < 5 | 30 to 100 |  | 
COc1cncc(O[C@@H]2CCC[C@H](N)C2)c1-c1cc(Nc2cnc(C#N)cn2)n[nH]1 [Example 19, 5-{[5-(3-{[(1R,3S)-3-aminocyclohexyl]oxy}-5-methoxypyridin-4-yl)-1H-pyrazol-3-yl]amino}pyrazine-2-carbonitrile] | more potent effect of suppressing CHK1 activity than prexasertib | 20 | < 30 | excellent cell growth suppression effect that is equivalent to that of prexasertib | 
COc1cncc(OC[C@H]2CCNC2)c1-c1cc(Nc2cnc(C#N)cn2)n[nH]1 [Example 21, (S)-5-[(5-{3-methoxy-[5-(pyrrolidin-3-yl)methoxy]pyridin-4-yl}-1H-pyrazol-3-yl)amino]pyrazine-2-carbonitrile] | more potent effect of suppressing CHK1 activity than prexasertib | 15 | < 30 | excellent cell growth suppression effect that is equivalent to that of prexasertib | 
COc1ncnc(OCC2(CN)CC2)c1-c1cc(Nc2cnc(C#N)cn2)n[nH]1 [Example 23, 5-{[5-(4-{[1-(aminomethyl)cyclopropyl]methoxy}-6-methoxypyrimidin-yl)-1H-pyrazol-3-yl]amino}pyrazine-2-carbonitrile] |  | < 5 | < 30 |  | 
N#Cc1cnc(Nc2cc(-c3c(OCF)cncc3OCCCN)[nH]n2)cn1 [Example 24, 5-({5-[3-(3-aminopropoxy)-5-(fluoromethoxy)pyridin-4-yl]-1H-pyrazol-3-yl}amino)pyrazine-2-carbonitrile] | more potent effect of suppressing CHK1 activity than prexasertib | 23 | 300 to 1000 |  | 
COc1cncc(OCC2(C)CNC2)c1-c1cc(Nc2cnc(C#N)cn2)n[nH]1 [Example 25, 5-[(5-{3-methoxy-5-[(3-methylazetidin-3-yl)methoxy]pyridin-4-yl}-1H-pyrazol-3-yl)amino]pyrazine-2-carbonitrile] |  | < 5 | < 30 | excellent cell growth suppression effect that is equivalent to that of prexasertib | 
COc1cncc(OCC2(C(F)F)CNC2)c1-c1cc(Nc2cnc(C#N)cn2)n[nH]1 [Example 26, 5-{[5-(3-{[3-(difluoromethyl)azetidin-3-yl]methoxy}-5-methoxypyridin-4-yl)-1H-pyrazol-3-yl]amino}pyrazine-2-carbo nitrile] | more potent effect of suppressing CHK1 activity than prexasertib | 42 | < 30 | excellent cell growth suppression effect that is equivalent to that of prexasertib | 
COc1cncc(OC[C@@H](C)CN)c1-c1cc(Nc2cnc(C#N)cn2)n[nH]1 [Example 27] |  | < 5 | < 30 |  | 
COc1cncc(O[C@@H]2CC[C@@H](N)C2)c1-c1cc(Nc2cnc(C#N)cn2)n[nH]1 [Example 32, 5-{[5-(3-{[(1R,3R)-3-aminocyclopentyl]oxy}-5-methoxypyridin-4-yl)-1H-pyrazol-3-yl]amino}pyrazine-2-carbonitrile] |  |  | < 30 | excellent cell growth suppression effect that is equivalent to that of prexasertib | 
